In patent publication US20190328712A1 (Treeway TW001 B.V., priority 2017, published 2019):

What was measured:
[1] = Single 60 mg dose of Radicut edaravone solution, oral and i.v. infusion, plasma pharmacokinetics in dogs; format: in vivo; conditions: male, beagle, dog, iv, i.v. infusion 60 mg (15 min)
Protocol: The study was conducted in a group of 4 male beagle dogs. […] After a wash-out period of 2 days, the animals received an intravenous infusion of two Radicut® ampoules (15 minutes infusion time).

[2] = Single dose, randomized, two-period cross-over study, oral solution 140 mg vs i.v. 60 mg, plasma pharmacokinetics; format: in vivo; conditions: human
Protocol: A single dose, randomized, two-period, cross-over study was conducted in 18 healthy male and female human subjects.

[3] = Rate of dissolution of edaravone in water; format: physicochemical; conditions: in the presence of an alkalizing agent
[4] = Single 60 mg dose of Radicut edaravone solution, oral and i.v. infusion, plasma pharmacokinetics in dogs; format: in vivo; conditions: male, beagle, dog; for concentration at […]: 0.25 hrs
[5] = rats, oral, 'raw' edaravone suspended with 0.5% CMC-Na, vs 100% intravenous; cited from earlier work
[6] = ALS patients, Week 24; cited from earlier work
[7] = both sexes, plasma, iv, i.v. infusion 60 mg (60 minutes)
[8] = both sexes, plasma, iv, i.v. infusion (60 mg, 60 minutes)
[9] = both sexes, plasma, oral administration 140 mg
[10] = both sexes, plasma, oral administration (140 mg)
[11] = iv, i.v. infusion 60 mg (15 min)

Tmax ([1]; 60 mg): 15 min | concentration at 0.083 h ([1]; 0.083 hrs): 3060 ng/mL | concentration at 0.5 h ([1]; 0.5 hrs): 648 ng/mL | concentration at 1 h ([1]; 1 hrs): 140 ng/mL | concentration at 2 h ([1]; 2 hrs): 49 ng/mL | concentration at 4 h ([1]; 4 hrs): 17 ng/mL | concentration at 8 h ([1]; 8 hrs): 6 ng/mL | bioavailability ([2]; both sexes, plasma, oral, 140 mg, oral aqueous solution 140 mg compared to i.v. infusion 60 mg, read-out: systemic / absolute bioavailability (Fabs)): ~80% | AUC(0-inf) [2, 7]: 1300 ng·h/mL | AUC(0-t) [2, 7]: 1290 ng·h/mL | Cmax [2, 7]: 1030 ng/mL | Tmax [2, 7]: 60 min | concentration at 0.17 h [2, 8]: 380 ng/mL | concentration at 0.5 h [2, 8]: 713 ng/mL | concentration at 1 h [2, 8]: 990 ng/mL | concentration at 1.5 h [2, 8]: 321 ng/mL | concentration at 4 h [2, 8]: 42 ng/mL | concentration at 6 h [2, 8]: 14 ng/mL | concentration at 8 h [2, 8]: 8 ng/mL | concentration at 10 h [2, 8]: 5 ng/mL | AUC(0-inf) [2, 9]: 2410 ng·h/mL | AUC(0-t) [2, 9]: 2390 ng·h/mL | Cmax [2, 9]: 2940 ng/mL | concentration at 0.083 h ([2]; both sexes, plasma, oral administration (140 mg), 0.083 hrs): 1200 ng/mL | concentration at 0.17 h [2, 10]: 2360 ng/mL | concentration at […] ([2]; both sexes, plasma, oral administration (140 mg), 0.25 hrs): 2630 ng/mL | concentration at 0.5 h [2, 10]: 1810 ng/mL | concentration at 1 h [2, 10]: 689 ng/mL | concentration at 1.5 h [2, 10]: 354 ng/mL | concentration at 2 h ([2]; both sexes, plasma, oral administration (140 mg), 2 hrs): 203 ng/mL | concentration at 4 h [2, 10]: 68 ng/mL | concentration at 6 h [2, 10]: 24 ng/mL | concentration at 8 h [2, 10]: 13 ng/mL | concentration at 10 h [2, 10]: 9 ng/mL | time to peak maximum concentration after administration ([2]; oral administration 140 mg): about 15 min | rate at which edaravone dissolves in water [3]: increased substantially | bioavailability ([4]; oral 60 mg compared to iv infusion, read-out: systemic bioavailability (Fabs)): 34% | AUC(0-inf) ([4]; oral administration 60 mg): 553 ng·h/mL | AUC(0-t) ([4]; oral administration 60 mg): 542 ng·h/mL | Cmax ([4]; oral administration 60 mg): 2310 ng/mL | concentration at 0.083 h ([4]; oral administration 60 mg, 0.083 hrs): 2310 ng/mL | concentration at 0.17 h ([4]; oral administration 60 mg, 0.17 hrs): 994 ng/mL | concentration at […] ([4]; oral administration 60 mg): 491 ng/mL | concentration at 0.5 h ([4]; oral administration 60 mg, 0.5 hrs): 185 ng/mL | concentration at 1 h ([4]; oral administration 60 mg, 1 hrs): 84 ng/mL | concentration at 1.5 h ([4]; oral administration 60 mg, 1.5 hrs): 51 ng/mL | concentration at 2 h ([4]; oral administration 60 mg, 2 hrs): 36 ng/mL | concentration at 4 h ([4]; oral administration 60 mg, 4 hrs): 11 ng/mL | concentration at 6 h ([4]; oral administration 60 mg, 6 hrs): 5 ng/mL | Tmax ([4]; po, 60 mg, oral administration 60 mg): ~5 min | AUC(0-inf) [4, 11]: 1630 ng·h/mL | AUC(0-t) [4, 11]: 1600 ng·h/mL | Cmax [4, 11]: 4380 ng/mL | concentration at […] [4, 11]: 4380 ng/mL | concentration at 10 h ([4]; iv, i.v. infusion 60 mg (15 min), 10 hrs): 5 ng/mL
Compound: CC1=NN(c2ccccc2)C(=O)C1 [edaravone, 3-methyl-1-phenyl-2-pyrazolin-5-one]
absolute bioavailability (Fabs) [5]: 5.23% | decline on a clinical assessment of daily functioning compared to placebo [6]: declined less
